# PubChem BioAssay AID2060607 (Molecular Pharmacology Branch, DTP, NCI, 2025)
# pIC50: −log10 of the molar value.
# Test system: 876862-298-R-J1-PDC complex spheroids, viability % test/control
# Test: Anticancer human tumor 876862-298-R-J1-PDC patient-derived endometrial carcinoma cell line growth inhibition [CLK]
# Details: for pIC50: curve of first compound; for viability, T/C: stronger effect = lower value
# Method in brief: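 Multi-cell-type spheroids combined patient-derived tumor cells with HUVEC endothelial cells and human mesenchymal stem cells. Paired agents were dosed in half-log steps down from about clinical Cmax, or from 10 microM where Cmax was unknown.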
# [1] = second compound 0.0316 µM, first compound 0.0316 µM
# [2] = second compound 0.0316 µM, first compound 0.1 µM
# [3] = second compound 0.1 µM, first compound 0.0316 µM
# [4] = second compound 0.1 µM, first compound 0.1 µM
# [5] = second compound 0.316 µM, first compound 0.0316 µM
# [6] = second compound 0.316 µM, first compound 0.1 µM
# [7] = second compound 1 µM, first compound 0.0316 µM
# [8] = second compound 1 µM, first compound 0.1 µM
# [9] = second compound 3.16 µM, first compound 0.0316 µM
# [10] = second compound 3.16 µM, first compound 0.1 µM
# [11] = second compound 10 µM, first compound 0.0316 µM
# [12] = second compound 10 µM, first compound 0.1 µM
# [13] = second compound 0.0316 µM, first compound 0.316 µM
# [14] = second compound 0.0316 µM, first compound 1 µM
# [15] = second compound 0.0316 µM, first compound 3.16 µM
# [16] = second compound 0.0316 µM, first compound 10 µM
# [17] = second compound 0.1 µM, first compound 0.316 µM
# [18] = second compound 0.1 µM, first compound 1 µM
# [19] = second compound 0.1 µM, first compound 3.16 µM
# [20] = second compound 0.1 µM, first compound 10 µM
# [21] = second compound 0.316 µM, first compound 0.316 µM
# [22] = second compound 0.316 µM, first compound 1 µM
# [23] = second compound 0.316 µM, first compound 3.16 µM
# [24] = second compound 0.316 µM, first compound 10 µM
# [25] = second compound 1 µM, first compound 0.316 µM
# [26] = second compound 1 µM, first compound 1 µM
# [27] = second compound 1 µM, first compound 3.16 µM
# [28] = second compound 1 µM, first compound 10 µM
# [29] = second compound 3.16 µM, first compound 0.316 µM
# [30] = second compound 3.16 µM, first compound 1 µM
# [31] = second compound 3.16 µM, first compound 3.16 µM
# [32] = second compound 3.16 µM, first compound 10 µM
# [33] = second compound 10 µM, first compound 0.316 µM
# [34] = second compound 10 µM, first compound 1 µM
# [35] = second compound 10 µM, first compound 3.16 µM
# [36] = second compound 10 µM, first compound 10 µM
# 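Further: spheroids exposed to drugs for 7 days before readout.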
# 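Wherever viability, T/C is given: 100% = DMSO vehicle control wells.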
smiles,measurement,setting,value
Cn1ncnc1[C@H]1c2n[nH]c(=O)c3cc(F)cc(c23)N[C@@H]1c1ccc(F)cc1 + CN1CCN(c2cc(C(=O)Nc3cc4cc(-c5cnn(C)c5)ccc4cn3)ccn2)CC1,pIC50,second compound 0.0316 µM,< 7.00
same,pIC50,second compound 0.1 µM,> 9.50
same,pIC50,second compound 0.316 µM,> 9.50
same,pIC50,second compound 1 µM,> 9.50
same,pIC50,second compound 3.16 µM,> 9.50
same,pIC50,second compound 10 µM,> 9.50
same,"viability, T/C","second compound 0.0316 µM, first compound 0.000316 µM",94.8%
same,"viability, T/C","second compound 0.0316 µM, first compound 0.001 µM",81.4%
same,"viability, T/C","second compound 0.0316 µM, first compound 0.00316 µM",89.7%
same,"viability, T/C","second compound 0.0316 µM, first compound 0.01 µM",87%
same,"viability, T/C",[1],99.8%
same,"viability, T/C",[2],81.6%
same,"viability, T/C","second compound 0.1 µM, first compound 0.000316 µM",44.7%
same,"viability, T/C","second compound 0.1 µM, first compound 0.001 µM",48.4%
same,"viability, T/C","second compound 0.1 µM, first compound 0.00316 µM",44.7%
same,"viability, T/C","second compound 0.1 µM, first compound 0.01 µM",48%
same,"viability, T/C",[3],43.2%
same,"viability, T/C",[4],37.9%
same,"viability, T/C","second compound 0.316 µM, first compound 0.000316 µM",2.64%
same,"viability, T/C","second compound 0.316 µM, first compound 0.001 µM",2.72%
same,"viability, T/C","second compound 0.316 µM, first compound 0.00316 µM",2.87%
same,"viability, T/C","second compound 0.316 µM, first compound 0.01 µM",3.16%
same,"viability, T/C",[5],2.95%
same,"viability, T/C",[6],2.25%
same,"viability, T/C","second compound 1 µM, first compound 0.000316 µM",0.47%
same,"viability, T/C","second compound 1 µM, first compound 0.001 µM",0.71%
same,"viability, T/C","second compound 1 µM, first compound 0.00316 µM",1%
same,"viability, T/C","second compound 1 µM, first compound 0.01 µM",0.8%
same,"viability, T/C",[7],0.52%
same,"viability, T/C",[8],0.74%
same,"viability, T/C","second compound 3.16 µM, first compound 0.000316 µM",0.96%
same,"viability, T/C","second compound 3.16 µM, first compound 0.001 µM",0.86%
same,"viability, T/C","second compound 3.16 µM, first compound 0.00316 µM",0.88%
same,"viability, T/C","second compound 3.16 µM, first compound 0.01 µM",0.88%
same,"viability, T/C",[9],1.01%
same,"viability, T/C",[10],0.64%
same,"viability, T/C","second compound 10 µM, first compound 0.000316 µM",0.56%
same,"viability, T/C","second compound 10 µM, first compound 0.001 µM",0.62%
same,"viability, T/C","second compound 10 µM, first compound 0.00316 µM",0.88%
same,"viability, T/C","second compound 10 µM, first compound 0.01 µM",0.76%
same,"viability, T/C",[11],0.63%
same,"viability, T/C",[12],0.56%
Nc1ccn(C2OC(CO)C(O)C2(F)F)c(=O)n1 (stereo unspecified) + CN1CCN(c2cc(C(=O)Nc3cc4cc(-c5cnn(C)c5)ccc4cn3)ccn2)CC1,pIC50,second compound 0.0316 µM,> 7.50
same,pIC50,second compound 0.1 µM,> 7.50
same,pIC50,second compound 0.316 µM,> 7.50
same,pIC50,second compound 1 µM,> 7.50
same,pIC50,second compound 3.16 µM,> 7.50
same,pIC50,second compound 10 µM,> 7.50
same,"viability, T/C",[1],22.6%
same,"viability, T/C",[2],8.64%
same,"viability, T/C",[13],6.4%
same,"viability, T/C",[14],7.52%
same,"viability, T/C",[15],6.95%
same,"viability, T/C",[16],5.95%
same,"viability, T/C",[3],13.8%
same,"viability, T/C",[4],8.73%
same,"viability, T/C",[17],7.61%
same,"viability, T/C",[18],7.32%
same,"viability, T/C",[19],7.36%
same,"viability, T/C",[20],6.15%
same,"viability, T/C",[5],1.98%
same,"viability, T/C",[6],2.23%
same,"viability, T/C",[21],2.31%
same,"viability, T/C",[22],2.07%
same,"viability, T/C",[23],1.76%
same,"viability, T/C",[24],1.74%
same,"viability, T/C",[7],0.86%
same,"viability, T/C",[8],0.6%
same,"viability, T/C",[25],1.16%
same,"viability, T/C",[26],0.96%
same,"viability, T/C",[27],0.79%
same,"viability, T/C",[28],0.99%
same,"viability, T/C",[9],0.84%
same,"viability, T/C",[10],0.93%
same,"viability, T/C",[29],0.9%
same,"viability, T/C",[30],0.86%
same,"viability, T/C",[31],1.01%
same,"viability, T/C",[32],0.93%
same,"viability, T/C",[11],0.55%
same,"viability, T/C",[12],0.43%
same,"viability, T/C",[33],0.48%
same,"viability, T/C",[34],0.64%
same,"viability, T/C",[35],0.74%
same,"viability, T/C",[36],0.72%
O=c1[nH]cc(F)c(=O)[nH]1 + CN1CCN(c2cc(C(=O)Nc3cc4cc(-c5cnn(C)c5)ccc4cn3)ccn2)CC1,pIC50,second compound 0.0316 µM,5.06
same,pIC50,second compound 0.1 µM,> 7.50
same,pIC50,second compound 0.316 µM,> 7.50
same,pIC50,second compound 1 µM,> 7.50
same,pIC50,second compound 3.16 µM,> 7.50
same,pIC50,second compound 10 µM,> 7.50
same,"viability, T/C",[1],94.5%
same,"viability, T/C",[2],89.6%
same,"viability, T/C",[13],88.8%
same,"viability, T/C",[14],83%
same,"viability, T/C",[15],55.9%
same,"viability, T/C",[16],49.4%
same,"viability, T/C",[3],41.8%
same,"viability, T/C",[4],52.2%
same,"viability, T/C",[17],47.8%
same,"viability, T/C",[18],41.9%
same,"viability, T/C",[19],31.5%
same,"viability, T/C",[20],29.9%
same,"viability, T/C",[5],3.11%
same,"viability, T/C",[6],2.75%
same,"viability, T/C",[21],3.62%
same,"viability, T/C",[22],2.92%
same,"viability, T/C",[23],2.73%
same,"viability, T/C",[24],2.79%
same,"viability, T/C",[7],0.65%
same,"viability, T/C",[8],0.89%
same,"viability, T/C",[25],0.91%
same,"viability, T/C",[26],0.83%
same,"viability, T/C",[27],0.68%
same,"viability, T/C",[28],0.7%
same,"viability, T/C",[9],0.68%
same,"viability, T/C",[10],1.36%
same,"viability, T/C",[29],1.24%
same,"viability, T/C",[30],0.98%
same,"viability, T/C",[31],1.14%
same,"viability, T/C",[32],1.44%
same,"viability, T/C",[11],0.57%
same,"viability, T/C",[12],0.53%
same,"viability, T/C",[33],0.54%
same,"viability, T/C",[34],0.77%
same,"viability, T/C",[35],0.83%
same,"viability, T/C",[36],0.73%
